Consider 24 compounds from PubChem BioAssay AID624361 (Broad Institute, 2012).

Results filed as inconclusive are left out. Active and inactive are the calls of the source. The rule behind the calls is not given here.

One test relates to LMP1-induced NF-kappaB luciferase reporter cells, luminescence. In words: inhibitors of LMP1-driven NF-kB reporter, dose response, cell-based, EBV LMP1, luciferase, dry powder, set 2 (AID 624361).
Details: not given
Regarding `CN(C)c1ccc2c(c1)[C@@H]1C[C@@H](CC(=O)NCc3ccc(Oc4ccccc4)cc3)O[C@H](CO)[C@@H]1O2`, the AC35 is 12.9 µM.

On to `COc1ccccc1C#Cc1ccc([C@H]2[C@H](C#N)N(C(=O)C3CC3)[C@H]2CO)cc1`, for which the AC35 was 20 µM.

For the compound `Cc1noc(C)c1S(=O)(=O)Nc1ccc2c(c1)C(=O)N([C@H](C)CO)C[C@H](C)[C@@H](CN(C)Cc1ccc(C(F)(F)F)cc1)OCCCC[C@H](C)O2`, the AC35 is 22.1 µM.

Take `COc1ccc(NC(=O)N(C)C[C@@H]2Oc3cc(C#CCC(C)C)ccc3S(=O)(=O)N([C@@H](C)CO)C[C@@H]2C)cc1`: the AC35 is 28.3 µM.

As for `O=C(Nc1ccc(C(F)(F)F)cc1)Nc1ccc2c(c1)[C@@H]1C[C@H](CC(=O)N3CCc4ccccc4C3)O[C@H](CO)[C@@H]1O2`, the AC35 is 8.02 µM.

For `Cc1cc(C(=O)Nc2ccc3c(c2)C(=O)N(C)[C@H]2CC[C@@H](CC(=O)NCc4ccc(-c5ccccc5)cc4)O[C@H]2CO3)no1`, the AC35 is 14.2 µM.

For `Cc1noc(C)c1S(=O)(=O)Nc1ccc2c(c1)C(=O)N([C@H](C)CO)C[C@H](C)[C@H](CN(C)Cc1ccc(C(F)(F)F)cc1)OCCCC[C@H](C)O2`, the AC35 was 27.8 µM.

As to `N#C[C@H]1[C@@H](c2ccc(-c3cccnc3)cc2)[C@@H](CO)N1C(=O)Nc1ccc(F)cc1`, the AC35 is 34.3 µM.

For `Cc1noc(C)c1S(=O)(=O)Nc1ccc2c(c1)C(=O)N([C@@H](C)CO)C[C@H](C)[C@@H](CN(C)Cc1ccc(C(F)(F)F)cc1)OCCCC[C@H](C)O2`, the AC35 was 30.3 µM.

`C[C@H]1CN([C@@H](C)CO)C(=O)c2cc(C#Cc3ccccc3F)cnc2O[C@@H]1CN(C)C(=O)C1CCCCC1`: the AC35 was 24.6 µM.

`Cc1noc(C)c1S(=O)(=O)Nc1ccc2c(c1)C(=O)N([C@H](C)CO)C[C@@H](C)[C@@H](CN(C)Cc1ccc(C(F)(F)F)cc1)OCCCC[C@H](C)O2`: the AC35 is 26.4 µM.

Tested on in another test: not listed separately
The test is described as above. As to conditions: LMP1-induced NF-kappaB luciferase reporter cells, luminescence; at 35 µM (top of the series). Background: In a reporter assay the amount or activity of a reporter protein is the signal.
Consider `C[C@@H](NC(=O)C[C@@H]1C=C[C@@H](NC(=O)Cc2ccccn2)[C@@H](CO)O1)c1ccccc1`, for which the activity change, negative = inhibition is 9.33% (inactive).

For `O=C(Cc1ccccn1)NCC[C@@H]1CC[C@@H](NC(=O)Nc2ccc(Cl)cc2)[C@@H](CO)O1`, the activity change, negative = inhibition was 1.94% (inactive).

For `CCC(=O)N1Cc2cc(C(=O)Nc3nccs3)nc(-c3cccc(-c4ccccc4OC)c3)c2[C@H]1CCO`, the activity change, negative = inhibition is -7.28% (inactive).

In the case of `O=C(Cc1ccccn1)NCC[C@H]1CC[C@@H](NC(=O)Nc2ccc(Cl)cc2)[C@@H](CO)O1`, the activity change, negative = inhibition is -0.381% (inactive).

Regarding `C/C=C/c1cccc(-c2nc(C(=O)Nc3nccs3)cc3c2[C@@H](CCO)N(C(=O)NC(C)C)C3)c1`, the activity change, negative = inhibition was -17% (inactive).

In the case of `C[C@@H](NC(=O)C[C@H]1C=C[C@H](NC(=O)Cc2ccccn2)[C@H](CO)O1)c1ccccc1`, the activity change, negative = inhibition is 9.56% (inactive).

As to `COC(=O)C[C@@H]1C[C@@H]2c3cc(NC(=O)CN(C)C)ccc3O[C@@H]2[C@@H](CO)O1`, the activity change, negative = inhibition was -0.64% (inactive).

Regarding `CC(C)(C)[S@@](=O)N1Cc2cc(C(=O)NCCc3ccncc3)nc(-c3cccc(-c4cccnc4)c3)c2[C@H]1CCO`, the activity change, negative = inhibition was -15% (inactive).

As for `C[C@H](NC(=O)C[C@H]1C=C[C@H](NC(=O)Cc2ccccn2)[C@H](CO)O1)c1ccccc1`, the activity change, negative = inhibition is 5.47% (inactive).

`C[C@H](NC(=O)C[C@H]1C=C[C@@H](NC(=O)Cc2ccccn2)[C@H](CO)O1)c1ccccc1`: the activity change, negative = inhibition was -1.8% (inactive).

With `C[C@@H](NC(=O)C[C@H]1C=C[C@@H](NC(=O)Cc2ccccn2)[C@@H](CO)O1)c1ccccc1`, the activity change, negative = inhibition was 0.795% (inactive).

As to `C[C@H](CO)N1C[C@H](C)[C@H](CN(C)Cc2ccc(Oc3ccccc3)cc2)Oc2ccc(NC(=O)CCCN(C)C)cc2C1=O`, the activity change, negative = inhibition is 16.2% (inactive).

`C[C@@H]1CN([C@@H](C)CO)C(=O)c2c(c3ccccc3n2C)-c2ccccc2CO[C@H]1CN(C)C(=O)Nc1ccc(F)cc1`: the activity change, negative = inhibition was -8.29% (inactive).
